From patent publication US20090281083A1, “Combination Product” (ASTRAZENECA AB, priority 2005, published 2009)

Tests used:
5/6 nephrectomy rats [1] = assay: Survival of 5/6 nephrectomised rats at 4 months; assay type: in vivo, male Wistar rats; conditions: 4 months into the study (3 months of drug treatment); candesartan cilexetil 5 mg/kg/day p.o., BH4 10 mg/kg/day i.p.
Description: Sixty male Wistar rats, mean weight 324±4 g, were fed a normal chow diet and allowed distilled water ad libitum. The 5/6 nephrectomy was performed according to standard protocol. In brief, the animals were anaesthetized with pentobarbital [35 mg/kg body weight (BW) intraperitoneally] and then underwent a right nephrectomy and ligature of two of the major branches of the left main renal artery (Nx) at day 0. AII the nephrectomies were carried out by one operator. The animals were then randomly assigned to one of five groups, as follows. • Group 1. SHAM (n=12); sham-operated rats. • Group 2. Nx (n=15); untreated 5/6 nephrectomy rats. • Group 3. C (n=11); 5/6 nephrectomy rats to which candesartan cilexetil (AstraZeneca AB) was given daily at a dose of 5 mg/kg BW/day. • Group 4. BH4 (n=10); 5/6 nephrectomy rats administered BH4 (Alexis Biochemical, Lausen), 10 mg/kg BW/day intraperitoneally (see Hypertension 38, 1044-1048 (2001), the disclosures of which document are hereby incorporated by reference). • Group 5. C+B (n=12); 5/6 nephrectomy rats to which candesartan cilexetil (AstraZeneca AB) was given daily at a dose of 5 mg/kg BW/day and BH4 (Alexis Biochemical, Lausen), was administered at a dose of 10 mg/kg BW/day intraperitoneally.
(§1) Drug administration was begun 30 days after surgery (at a point when the nephrectomised rats have already developed hypertension and renal insufficiency). […] Systolic blood pressure (SBP) was measured in trained unstressed rats 1 day before surgery and at 30, 60, 90 and 120 days, by tail cuff manometry using an automated sphygmomanometer (Narco Bio Systems, Austin, Tex., USA). The Animal Care and Use Committee of Meir Hospital approved all procedures.
Due to abnormalities found by way of post-study autopsies, two rats were excluded from the analysis of the “C+B” group (i.e. Group 5).
At a point 4 months into the study (3 months of drug treatment for rats in groups 3 to 5), survival rates were as follows.

5/6 nephrectomy rats [2] = assay: Histological mesangial expansion score of kidneys of 5/6 nephrectomised rats; assay type: in vivo, male Wistar rats; conditions: 4 months into the study (3 months of drug treatment); candesartan cilexetil 5 mg/kg/day p.o., BH4 10 mg/kg/day i.p.; untreated Nx 200, sham 0
Description: Sixty male Wistar rats, mean weight 324±4 g, were fed a normal chow diet and allowed distilled water ad libitum. The 5/6 nephrectomy was performed according to standard protocol. In brief, the animals were anaesthetized with pentobarbital [35 mg/kg body weight (BW) intraperitoneally] and then underwent a right nephrectomy and ligature of two of the major branches of the left main renal artery (Nx) at day 0. AII the nephrectomies were carried out by one operator. The animals were then randomly assigned to one of five groups, as follows. • Group 1. SHAM (n=12); sham-operated rats. • Group 2. Nx (n=15); untreated 5/6 nephrectomy rats. • Group 3. […]
as §1, with “The Animal Care and Use Committee of Meir Hospital approved all procedures.” left out
Kidneys were fixed in neutral buffered formalin and embedded in paraffin for light microscopic study. […] A semi-quantitative score was used to assess the severity of glomerular lesions (see Nephrol. Dial. Transplant. 8, 501-506 (1993), the disclosures of which document are hereby incorporated by reference). […]

SMILES	Survival (% age) (5/6 nephrectomy rats [1])	ME Score (mesangial expansion score, median value) (5/6 nephrectomy rats [2])	Survival (surviving rats of group) (5/6 nephrectomy rats [1])
C[C@H](O)[C@H](O)[C@H]1CNc2nc(N)[nH]c(=O)c2N1 [BH4, Tetrahydrobiopterin]	(50%)	158	–
CCOc1nc2cccc(C(=O)OC(C)OC(=O)OC3CCCCC3)c2n1Cc1ccc(-c2ccccc2-c2nnn[nH]2)cc1 (centres unmarked) [candesartan cilexetil, 1-(cyclohexyloxycarbonyloxy)ethyl ester of candesartan]	(63.64%)	82	7 of 11
